Assay results: patent US20230201168A1, “NEW THERAPY FOR THE TREATMENT OF TUMORS” (Università degli Studi di Trento, priority 2020, published 2023)

Experiments:
[1] = system: COMI cells; test: Viability assay (Hoechst 33342/PI), COMI cells; type: cell-based; conditions: Homo sapiens, 48 h, mean±SD
Description: (§1) For the evaluation of the effect of Q/D, streptogramins A analogues (alone or in combination with Q) and TMZ on GSCs viability, cells were seeded into 96-well laminin-coated microtiter plates in 150 μL of media. The plates were incubated for 24 h prior to drug treatment. Serial drug dilutions were prepared in PBS to provide a total of seven drug concentrations plus control. 10 μL of these dilutions were added to each well, and the plates were incubated for additional 48 h. Each treatment was performed in technical quadruplicate. After the drug treatments, the cells were stained with Hoechst 33342 (1 μg/mL; Thermo Fisher Scientific, cat. H1399) and Propidium Iodide (PI, 1 μg/mL; Sigma Aldrich, cat. P4170) and incubated for 20 min shaking in the dark. The plates were then read using Operetta-High Content Imaging System (Perkin Elmer) and analyzed using the Harmony Software. The number of viable cells was calculated by subtracting PI positive cells from the total number of cells estimated by Hoechst 33342 staining and normalized on the non treated control.
(§2) Dose-response curves were plotted and growth inhibition 50 (GI50) values calculated using the GraphPad Prism software.

[2] = system: VIPI cells; test: Viability assay (Hoechst 33342/PI), VIPI cells; type: cell-based; conditions: Homo sapiens, 48 h, mean±SD
Description: as §1, §2

Compound `Cn1nnc2c(C(N)=O)ncn2c1=O` [TMZ, temozolomide] has a GI50 [1] of 96.5 ± 15.2 µM and a GI50 [2] of 338 ± 35.5 µM.
